Test results reported in patent US20080214606A1, “Methods for the Identification and Use of Compounds Suitable for the Treatment of Drug Resistant Cancer Cells” (The Government of the United States of America as …, priority 2004, published 2008).
Read-outs that look alike come from different tables or passages of the source.

Molecular target: ABCB1 (Homo sapiens, UniProt P08183)
Assay: Correlation of ABCB1 expression with drug sensitivity across the NCI-60
Description: Expression levels are measured by real-time quantitative RT-PCR using the LightCycler RNA Amplification SYBR Green kit and a LightCycler machine (Roche Biochemicals, Indianapolis, Ind.). Specific oligonucleotide probes are designed for each of the ABC transporters using DNAStar Primer Select (DNASTAR Inc.), and they may be synthesized at Lofstrand Laboratories (Gaithersburg, Md.). When possible, the amplicons are designed to encompass exon-intron boundaries to avoid amplification of genomic DNA. Since the Syber Green assay detects accumulation of double stranded DNA, primers are selected (from a battery consisting of about 200 primers) that amplified a single product of the correct size.
RT-PCR is carried out on 150 ng total RNA, in the presence of 250 nM specific primers. Following reverse transcription (20 min at 50° C.), the PCR reaction consists of 45 cycles of denaturation (15 sec at 95° C.), annealing (30 sec at 58° C.), and elongation (30 sec at 72° C.). No-template (water) reaction mixtures are prepared as negative controls.
During PCR amplification, fluorescence emission is measured and recorded in real time by the LightCycler. Crossing point values are calculated, using the LightCycler software package, by the Fit Points analysis method, with baseline fluorescence set at 1. The SyberGreen assay measures accumulation of double-stranded products, and the appearance of primer dimers limits quantitation at high cycle numbers. […] The raw results are expressed as number of cycles to reach the crossing point. If the desired product is not detected, the corresponding value is adjusted to crossing points indicating no expression. To assess the contribution of experimental artifacts, selected cell lines are assessed in replicate.
Both sets are available at http://discover.nci.nih.gov. The two are combined to form a joint dataset that includes 1429 compounds.
To determine quantitatively how well the 47 genes cluster the cell lines by their tissues of origin, a statistical method is employed wherein the kappa statistic is used to indicate how well the observed clusters correspond to the nine tissue-of-origin classifications. […] To control the overall false type 1 error rate, both a step-down procedure (Westfall and Young, 1993, Resampling-Based Multiple Testing: Examples and Methods for p-value Adjustment (New York: Wiley)) and a step-up procedure (Reiner et al., 2003, Bioinformatics 19:368-375) were employed to adjust for multiple testing of all 47 genes simultaneously. In the Benjamini-Hochberg procedure the p-values are computed in the standard way by permutation, assuming that all distributions are exchangeable: the number of values in the permuted data with correlations over a threshold, divided by the number of compounds and by the number of permutations. In this analysis, the False Discovery Rate (q-value) at which each compound would be declared was calculated using the step-up procedure for positively correlated test statistics (again true because all correlations being compared are computed against the same ABC gene): in this procedure the first q-value for the largest correlation is the Bonferroni-corrected p-value for that gene; then further q-values are calculated as qj=max(pj*1429/j, qj-1). This procedure limits the expected proportion of false positives in the list 1, . . . , j to at most qj.

Chain of ABCB1 (P08183 whole entry): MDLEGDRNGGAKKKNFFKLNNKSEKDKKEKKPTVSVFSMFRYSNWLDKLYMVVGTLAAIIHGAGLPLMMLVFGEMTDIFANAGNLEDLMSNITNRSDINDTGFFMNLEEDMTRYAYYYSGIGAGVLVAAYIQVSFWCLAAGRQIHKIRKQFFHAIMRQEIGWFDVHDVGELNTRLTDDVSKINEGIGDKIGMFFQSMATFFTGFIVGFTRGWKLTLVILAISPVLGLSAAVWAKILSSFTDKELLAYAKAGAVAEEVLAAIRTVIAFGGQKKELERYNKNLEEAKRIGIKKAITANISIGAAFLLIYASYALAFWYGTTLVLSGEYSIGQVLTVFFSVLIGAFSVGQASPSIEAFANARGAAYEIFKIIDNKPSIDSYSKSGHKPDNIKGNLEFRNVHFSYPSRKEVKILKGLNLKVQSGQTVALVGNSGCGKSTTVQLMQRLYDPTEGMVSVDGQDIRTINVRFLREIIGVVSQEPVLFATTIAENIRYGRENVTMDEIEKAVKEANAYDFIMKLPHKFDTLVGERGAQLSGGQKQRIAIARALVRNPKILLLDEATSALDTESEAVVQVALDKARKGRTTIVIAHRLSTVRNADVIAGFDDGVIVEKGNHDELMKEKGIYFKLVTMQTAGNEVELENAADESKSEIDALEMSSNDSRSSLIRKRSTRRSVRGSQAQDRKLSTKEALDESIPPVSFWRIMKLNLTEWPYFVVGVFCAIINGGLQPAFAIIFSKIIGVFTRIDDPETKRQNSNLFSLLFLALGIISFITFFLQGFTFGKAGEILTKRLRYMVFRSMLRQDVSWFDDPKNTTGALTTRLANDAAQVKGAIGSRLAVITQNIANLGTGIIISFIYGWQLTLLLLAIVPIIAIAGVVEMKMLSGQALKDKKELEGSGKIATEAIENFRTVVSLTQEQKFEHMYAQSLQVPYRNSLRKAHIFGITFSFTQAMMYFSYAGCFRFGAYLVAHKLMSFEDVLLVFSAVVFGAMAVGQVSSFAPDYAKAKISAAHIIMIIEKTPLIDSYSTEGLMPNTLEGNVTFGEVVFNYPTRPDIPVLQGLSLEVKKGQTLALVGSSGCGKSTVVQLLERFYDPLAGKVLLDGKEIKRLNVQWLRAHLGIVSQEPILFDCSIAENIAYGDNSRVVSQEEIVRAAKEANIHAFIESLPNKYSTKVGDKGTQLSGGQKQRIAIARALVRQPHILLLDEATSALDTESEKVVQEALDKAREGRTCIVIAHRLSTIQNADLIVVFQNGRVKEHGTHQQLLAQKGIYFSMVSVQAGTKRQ

## CC1=C(N2CC2)C(=O)C(C)=C(N2CC2)C1=O [NSC646714]
  Pearson's Correlation Coeff: 0.3262

## O=C(N[C@@H](c1ccccc1)[C@@H](O)C(=O)OCc1ccc2c(c1)OCO2)c1ccccc1 [NSC 625349]
  Correlation of antiproliferative activity with ABCB1 expression: 0.3935

## CCCOc1cc2c(cc1O)CC[C@@H]1[C@@H]2CC[C@]2(C)[C@@H](O)CC[C@@H]12 [NSC671041]
  Pearson's Correlation Coeff: 0.2610

## CN(C)CCN1C(=O)c2cccc3cc([N+](=O)[O-])cc(c23)C1=O [NSC300288]
  Pearson's Correlation Coeff: 0.2734

## CN(C)CCNC(=O)c1cc(Cl)cc2cc3ccccc3nc12.Cl [NSC 617966]
  Correlation of antiproliferative activity with ABCB1 expression: 0.3715

## CN(Cc1cnc2nc(N)nc(N)c2n1)c1ccc(C(=O)N[C@@H](CCC(=O)O)C(=O)O)c2ccccc12 [NSC174121]
  Pearson's Correlation Coeff: 0.2662

## N#Cc1c(Nc2ccccc2)[n+]([O-])c2ccc(Cl)cc2[n+]1[O-] [NSC693869]
  Pearson's Correlation Coeff: 0.2805

## COC(=O)CN(CC(O)C(NC(C)=O)C(O)C=O)C(=O)OCc1ccccc1 (stereo not shown) [NSC 693931]
  Correlation of antiproliferative activity with ABCB1 expression: 0.3708

## COc1ccc2oc(S(=O)(=O)N3CC(CCl)c4ccc([N+](=O)[O-])cc43)cc2c1 (stereo not shown) [NSC696992]
  Pearson's Correlation Coeff: 0.2171

## C(=N\NC1=NCCN1)/c1c2ccccc2c(/C=N/NC2=NCCN2)c2ccccc12 [bisantrene, reference compound]
Set of 118 compounds with putatively known mechanisms of action, FIG. 2
  Relationship between drug sensitivity and ABCB1 expression (in words): striking inverse correlations

## CCN(CC)CC[n+]1ccc2c(C)c3[nH]c4ccccc4c3c(C)c2c1 [NSC 359449]
  Correlation: −0.7108

## COc1ccc(-c2oc3cc(O)c(OC)c(O)c3c(=O)c2O)cc1 [NSC641548]
  Pearson's Correlation Coeff: 0.2632

## Cc1c(CNc2ccc(Cl)c(C(=O)NC(CC(=O)O)C(=O)O)c2)ccc2nc(N)nc(N)c12 (stereo not shown) [NSC132483]
  Pearson's Correlation Coeff: 0.3151

## CCc1nc(N)nc(N)c1-c1ccc(N(C)Cc2ccccc2)c([N+](=O)[O-])c1 [NSC382035]
  Pearson's Correlation Coeff: 0.3180

## Oc1c(CN2CCN(c3ccccc3)CC2)cc(Br)c2cccnc12 [NSC 117028]
  Correlation of antiproliferative activity with ABCB1 expression: 0.3579

## Br.CCN(CC)CC[n+]1ccc2c(C)c3[nH]c4ccccc4c3c(C)c2c1.[Br-] [NSC 353076]
  Correlation: −0.7983

## CNC(=O)C(C)C1CCC2(C)C=CC(=O)C(C)=C2C1O (stereo not shown) [NSC 623069]
  Correlation of antiproliferative activity with ABCB1 expression: 0.459

## C=C(C=O)c1c2c(nc3ccccc13)C(=O)c1ccccc1C2=O [NSC694489]
  Pearson's Correlation Coeff: 0.3742

## CCC(C)SC1SCC2C(=O)N(C)C3(CC3C)C(=O)OCC(NC(=O)c3nc4ccccc4cc3O)C(=O)NC(C)C(=O)N(C)C1C(=O)N(C)C1(CC1C)C(=O)OCC(NC(=O)c1nc3ccccc3cc1O)C(=O)NC(C)C(=O)N2C (stereo not shown) [NSC 630678]
  Correlation: −0.7029

## Nc1nc(N)c2cc(CNc3ccc(C(=O)NC(CC(=O)O)C(=O)O)c(Cl)c3)ccc2n1 (stereo not shown) [NSC134033]
  Pearson's Correlation Coeff: 0.2800

## COc1cc2c(c(O)c1O)-c1ccc(OC)c(=O)cc1C(NC(C)=O)CC2 (stereo not shown) [NSC 354975]
  Correlation: −0.6043

## Cc1ccc2c(c1)-c1c(C#N)c(N)nc(-c3ccc(Cl)cc3)c1CCS2(=O)=O [NSC691578]
  Pearson's Correlation Coeff: 0.2102

## CCc1nc(N)nc(N)c1-c1ccc([N+](=O)[O-])c(Cl)c1 [NSC602313]
  Pearson's Correlation Coeff: 0.3012

## Nc1nc(N)c2nc(CNc3ccc(C(=O)N[C@@H](CCCNC(=O)c4ccccc4C(=O)O)C(=O)O)cc3)cnc2n1 [NSC633713]
  Pearson's Correlation Coeff: 0.2908

## NC(=O)NO [NSC32065]
  Pearson's Correlation Coeff: 0.3336

## CC(C)OC(=S)Nc1ccc(Cl)c(/C=N/OC(C)(C)C)c1 [NSC 645542]
  Correlation of antiproliferative activity with ABCB1 expression: 0.3924

## Nc1nc(N)c2nc(CNc3ccc(C(=O)NC(CCC(=O)O)C(=O)O)cc3F)cnc2n1.O=C(O)C(F)(F)F (stereo not shown) [NSC 607301]
  Correlation of antiproliferative activity with ABCB1 expression: 0.3523

## CC1(C)C2CC1C(C(O)C1c3cc(-c4ccccn4)ncc3C3CC1C3(C)C)c1cc(-c3ccccn3)ncc12 (stereo not shown) [NSC697653]
  Pearson's Correlation Coeff: 0.1718

## CN(C)CCNc1ccc2nnn3c4ccc(Cl)cc4c(=O)c1c23 [NSC645818]
  Pearson's Correlation Coeff: 0.3377

## CS(C)=O.[Cl][Pt][Cl].c1ccc2ncccc2c1 [NSC632790]
  Pearson's Correlation Coeff: 0.2677

## S=C(N/N=C\C=N/NC(=S)N1CCCCC1)N1CCCCC1 [NSC693323]
  Pearson's Correlation Coeff: 0.3180

## Oc1ccc2ccccc2c1-c1nnc(CCCCCCCCc2nnc(-c3c(O)ccc4ccccc34)o2)o1 [NSC697189]
  Pearson's Correlation Coeff: 0.2621

## c1cc(-c2cn3ccsc3n2)ccn1 [NSC 641288]
  Correlation of antiproliferative activity with ABCB1 expression: 0.3643

## O=C([O-])c1ccc(C(=O)[O-])c(C(=O)[O-])c1.[H+].[NH-]C1CCCCC1[NH-].[Pt+4] [NSC271674]
  Pearson's Correlation Coeff: 0.2678

## CC(C)=CCC[C@@H](C)C1=C(Nc2ccccc2Cl)C(O)=C(C)C(=O)C1=O [NSC697138]
  Pearson's Correlation Coeff: 0.3551

## CC(/C=N/NC(=S)N1CCCCC1)=N/NC(=S)N1CCCCC1 [NSC 693326]
  Correlation of antiproliferative activity with ABCB1 expression: 0.3892

## CC(C)(C)N1CC1CNC(=O)C(=O)NCC1CN1C(C)(C)C (stereo not shown) [NSC298276]
  Pearson's Correlation Coeff: 0.3398

## C=C(C)C(=O)O[C@H]1CC2=C[C@@H](C[C@@]3(C)O[C@@H]3[C@H]3OC(=O)C(=C)[C@@H]31)OC2=O [NSC100046]
  Pearson's Correlation Coeff: 0.2949

## COc1cccc2c1C(=O)c1c(O)c3c(c(O)c1C2=O)C[C@@](O)(C(C)=O)C[C@@H]3OC1CC(N(Cc2ccccc2)Cc2ccccc2)C(O)C(C)O1.Cl (stereo partly shown) [NSC268242]
  Pearson's Correlation Coeff: 0.2268

## Nc1ccn([C@@H]2C=C(CO)[C@@H](O)[C@H]2O)c(=O)n1 [NSC375575]
  Pearson's Correlation Coeff: 0.2400

## COc1cc(/C=C2\CCC/C(=C\c3ccc(O)c(OC)c3)C2=O)ccc1O [NSC652893]
  Pearson's Correlation Coeff: 0.2821

## CCc1nc(N)nc(N)c1-c1ccc(Cl)c([N+](=O)[O-])c1 [NSC302325]
  Pearson's Correlation Coeff: 0.2979

## COc1ccc2oc(S(=O)(=O)N3CC(CCl)c4ccc(N)cc43)cc2c1 (stereo not shown) [NSC696124]
  Pearson's Correlation Coeff: 0.2104

## O=c1cc(-c2ccccc2F)[nH]c2cc3c(cc12)OCO3 [NSC656158]
  Pearson's Correlation Coeff: 0.2218

## CC(C)=CCC[C@@H](C)c1c2[nH]c3ccccc3sc-2c(C)c(=O)c1=O [NSC697130]
  Correlation of antiproliferative activity with ABCB1 expression: 0.3925
  Pearson's Correlation Coeff: 0.4582

## COC1=C2C[C@@H](C)C[C@H](OC)[C@H](O)[C@@H](C)/C=C(\C)[C@H](OC(N)=O)[C@@H](OC)/C=C\C=C(/C)C(=O)NC(=CC1=O)C2=O [geldamycin, reference compound]
  Relationship between drug sensitivity and ABCB1 expression (in words): striking inverse correlations

## [N-]=[N+]=CC(=O)OC1Cc2ccccc2C1 [NSC 679285]
  Correlation of antiproliferative activity with ABCB1 expression: 0.3504

## COc1cc([C@@H]2c3[nH]c4ccccc4c3C[C@H]3COC(=O)N32)cc(OC)c1O [NSC640737]
  Pearson's Correlation Coeff: 0.2176

## O=C(/C=C/c1ccc(Cl)cc1)c1ccccc(=O)c1O [NSC 356777]
  Correlation of antiproliferative activity with ABCB1 expression: 0.4021

## c1cc2n(n1)CCN2 [NSC51143]
  Pearson's Correlation Coeff: 0.4328

## CCOc1cc2c(cc1O)C(=O)C[C@@H]1[C@@H]2CC[C@]2(C)[C@@H](O)CC[C@@H]12 [NSC679431]
  Pearson's Correlation Coeff: 0.2672

## O=C(O)Cc1cccc2c(=O)cc(-c3ccccc3)oc12 [NSC 347512]
  Correlation of antiproliferative activity with ABCB1 expression: 0.4109

## CCc1nc(N)nc(N)c1-c1ccc2c(c1)nnn2CCc1ccccc1 [NSC382053]
  Pearson's Correlation Coeff: 0.3841

## Cc1c(-c2ccc(-c3ccccc3F)cc2)nc2ccc(F)cc2c1C(=O)O [NSC368390]
  Pearson's Correlation Coeff: 0.2331

## O=C1C=CC(=O)c2c(O)ccc(O)c21 [NSC26647]
  Pearson's Correlation Coeff: 0.2476

## [Se]=P(c1ccccc1)(c1ccccc1)c1ccc(C(c2ccccc2)=P(c2ccccc2)(c2ccccc2)c2ccccc2)cc1 [NSC 676864]
  Correlation: −0.6546

## CC[C@]12C=CCN3CCC4(c5cc([C@@]6(C(=O)OC)CC7CN(CCc8c6[nH]c6ccccc86)C[C@@H]6CCC[C@H]76)c(OC)cc5N(C)C4[C@](O)(C(=O)OC)C1OC(C)=O)C32.COS(=O)(=O)O (stereo partly shown) [NSC 651727]
  Correlation: −0.3910
